Test results from ChEMBL document CHEMBL5678818, “Discovery of potent SOS1 inhibitors that block RAS activation via disruption of the RAS-SOS1 interaction” (Proc Natl Acad Sci U S A, 2019).

What was measured:
[1] = target: Ribosomal protein S6 kinase alpha-1 (Homo sapiens) (UniProt Q15418); test: Inhibition of N-terminal RSK1 kinetic domain 1 (unknown origin) assessed as residual activity at 100 nM by KINOMEscan analysis relative to control
[2] = target: T1, Membrane-associated tyrosine- and threonine-specific cdc2-inhibitory kinase (Homo sapiens) (UniProt Q99640); test: Inhibition of PKMYT1 (unknown origin) assessed as residual activity at 100 nM by KINOMEscan analysis relative to control
T1 sequence (whole entry): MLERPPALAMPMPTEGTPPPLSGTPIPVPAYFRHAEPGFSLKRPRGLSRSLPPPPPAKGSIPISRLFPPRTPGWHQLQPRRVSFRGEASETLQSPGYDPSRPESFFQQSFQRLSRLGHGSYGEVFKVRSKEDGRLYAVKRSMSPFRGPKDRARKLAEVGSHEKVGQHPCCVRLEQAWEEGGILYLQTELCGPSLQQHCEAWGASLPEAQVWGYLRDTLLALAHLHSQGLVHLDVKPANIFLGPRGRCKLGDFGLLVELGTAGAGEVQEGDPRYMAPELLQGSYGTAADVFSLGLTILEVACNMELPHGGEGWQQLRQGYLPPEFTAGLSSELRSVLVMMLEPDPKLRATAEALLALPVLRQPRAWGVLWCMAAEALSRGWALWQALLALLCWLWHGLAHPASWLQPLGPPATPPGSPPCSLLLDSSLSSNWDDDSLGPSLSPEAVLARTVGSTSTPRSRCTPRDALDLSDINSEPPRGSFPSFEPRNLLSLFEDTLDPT

[3] = target: Serine/threonine-protein kinase 25 (Homo sapiens) (UniProt O00506); test: Inhibition of YSK1 (unknown origin) assessed as residual activity at 100 nM by KINOMEscan analysis relative to control
[4] = target: Myosin light chain kinase 2, skeletal/cardiac muscle (Homo sapiens) (UniProt Q9H1R3); test: Inhibition of MYLK2 (unknown origin) assessed as residual activity at 100 nM by KINOMEscan analysis relative to control
[5] = target: T2, Ephrin type-B receptor 1 (Homo sapiens) (UniProt P54762); test: Inhibition of EPHB1 (unknown origin) assessed as residual activity at 100 nM by KINOMEscan analysis relative to control
T2 sequence (whole entry): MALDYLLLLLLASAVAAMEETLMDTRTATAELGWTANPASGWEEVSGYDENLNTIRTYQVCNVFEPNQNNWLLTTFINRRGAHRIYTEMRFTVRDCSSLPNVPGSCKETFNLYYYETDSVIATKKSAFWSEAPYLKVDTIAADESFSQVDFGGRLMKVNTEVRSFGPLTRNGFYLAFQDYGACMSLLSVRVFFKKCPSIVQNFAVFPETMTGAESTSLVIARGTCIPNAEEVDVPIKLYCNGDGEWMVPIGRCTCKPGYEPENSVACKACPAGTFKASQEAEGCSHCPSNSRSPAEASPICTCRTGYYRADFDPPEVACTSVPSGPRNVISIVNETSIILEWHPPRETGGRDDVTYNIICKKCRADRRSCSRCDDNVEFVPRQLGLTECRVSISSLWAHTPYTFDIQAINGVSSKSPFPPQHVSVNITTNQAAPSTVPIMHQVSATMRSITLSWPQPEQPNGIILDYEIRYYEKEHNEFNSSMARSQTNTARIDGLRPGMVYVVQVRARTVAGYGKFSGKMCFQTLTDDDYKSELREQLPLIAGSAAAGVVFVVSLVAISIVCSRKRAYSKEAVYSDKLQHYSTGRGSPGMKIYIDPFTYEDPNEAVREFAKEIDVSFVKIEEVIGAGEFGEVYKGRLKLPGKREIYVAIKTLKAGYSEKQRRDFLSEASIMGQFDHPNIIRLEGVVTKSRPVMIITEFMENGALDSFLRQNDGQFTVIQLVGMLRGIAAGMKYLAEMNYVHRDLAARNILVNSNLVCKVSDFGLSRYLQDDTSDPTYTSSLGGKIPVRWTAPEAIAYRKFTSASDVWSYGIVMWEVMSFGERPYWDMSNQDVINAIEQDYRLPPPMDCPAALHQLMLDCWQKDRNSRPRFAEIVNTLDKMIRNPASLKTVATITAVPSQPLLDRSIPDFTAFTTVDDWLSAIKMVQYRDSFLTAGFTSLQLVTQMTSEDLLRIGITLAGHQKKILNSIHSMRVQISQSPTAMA

[6] = target: Mitogen-activated protein kinase kinase kinase 20 (Homo sapiens) (UniProt Q9NYL2); test: Inhibition of ZAK (unknown origin) assessed as residual activity at 100 nM by KINOMEscan analysis relative to control
[7] = target: BDNF/NT-3 growth factors receptor (Homo sapiens) (UniProt Q16620); test: Inhibition of TRKB (unknown origin) assessed as residual activity at 100 nM by KINOMEscan analysis relative to control
Chain of BDNF/NT-3 growth factors receptor (Homo sapiens) (Q16620 32-822 limits assumed): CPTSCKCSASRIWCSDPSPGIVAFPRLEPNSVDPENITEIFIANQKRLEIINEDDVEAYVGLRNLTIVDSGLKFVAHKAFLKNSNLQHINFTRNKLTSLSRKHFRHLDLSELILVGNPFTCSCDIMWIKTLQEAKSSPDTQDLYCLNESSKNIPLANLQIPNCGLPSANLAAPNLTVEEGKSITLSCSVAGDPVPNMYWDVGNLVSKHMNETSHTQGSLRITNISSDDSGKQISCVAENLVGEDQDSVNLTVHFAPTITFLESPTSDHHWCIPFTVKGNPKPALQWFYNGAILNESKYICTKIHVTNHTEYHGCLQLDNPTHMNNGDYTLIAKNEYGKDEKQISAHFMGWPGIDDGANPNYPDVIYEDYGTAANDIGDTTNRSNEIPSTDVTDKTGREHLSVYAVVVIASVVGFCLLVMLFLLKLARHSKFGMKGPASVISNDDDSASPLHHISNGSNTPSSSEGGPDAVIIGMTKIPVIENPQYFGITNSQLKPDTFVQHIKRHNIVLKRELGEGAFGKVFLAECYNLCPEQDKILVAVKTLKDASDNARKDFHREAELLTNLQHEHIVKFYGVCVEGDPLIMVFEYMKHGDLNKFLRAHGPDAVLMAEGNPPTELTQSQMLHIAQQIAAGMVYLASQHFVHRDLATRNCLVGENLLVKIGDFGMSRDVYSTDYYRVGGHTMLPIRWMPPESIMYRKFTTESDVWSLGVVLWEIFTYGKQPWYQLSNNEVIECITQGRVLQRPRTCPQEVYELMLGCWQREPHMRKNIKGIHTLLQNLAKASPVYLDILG

Chain of Ribosomal protein S6 kinase alpha-1 (Homo sapiens) (Q15418 whole entry, the tested form may be a part): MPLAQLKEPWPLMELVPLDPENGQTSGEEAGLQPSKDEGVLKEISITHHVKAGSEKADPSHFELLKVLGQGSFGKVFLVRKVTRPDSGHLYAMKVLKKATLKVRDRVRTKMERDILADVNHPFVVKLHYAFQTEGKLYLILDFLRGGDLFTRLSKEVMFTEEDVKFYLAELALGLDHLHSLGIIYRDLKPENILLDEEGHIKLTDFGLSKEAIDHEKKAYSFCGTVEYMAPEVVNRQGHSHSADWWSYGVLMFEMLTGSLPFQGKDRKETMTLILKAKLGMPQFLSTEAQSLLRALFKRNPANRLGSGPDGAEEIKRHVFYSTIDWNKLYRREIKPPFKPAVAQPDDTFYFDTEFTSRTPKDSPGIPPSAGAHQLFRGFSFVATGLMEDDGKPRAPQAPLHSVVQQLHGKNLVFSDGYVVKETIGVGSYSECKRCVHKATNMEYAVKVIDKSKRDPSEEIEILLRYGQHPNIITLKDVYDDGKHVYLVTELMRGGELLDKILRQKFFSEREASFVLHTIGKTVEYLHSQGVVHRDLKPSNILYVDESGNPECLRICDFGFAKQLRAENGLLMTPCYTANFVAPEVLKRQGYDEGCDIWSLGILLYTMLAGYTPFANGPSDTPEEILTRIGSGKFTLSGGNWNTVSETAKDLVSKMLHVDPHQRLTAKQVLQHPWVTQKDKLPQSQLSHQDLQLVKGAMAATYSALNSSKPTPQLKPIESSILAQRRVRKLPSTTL
Chain of Mitogen-activated protein kinase kinase kinase 20 (Homo sapiens) (Q9NYL2 2-800 limits assumed): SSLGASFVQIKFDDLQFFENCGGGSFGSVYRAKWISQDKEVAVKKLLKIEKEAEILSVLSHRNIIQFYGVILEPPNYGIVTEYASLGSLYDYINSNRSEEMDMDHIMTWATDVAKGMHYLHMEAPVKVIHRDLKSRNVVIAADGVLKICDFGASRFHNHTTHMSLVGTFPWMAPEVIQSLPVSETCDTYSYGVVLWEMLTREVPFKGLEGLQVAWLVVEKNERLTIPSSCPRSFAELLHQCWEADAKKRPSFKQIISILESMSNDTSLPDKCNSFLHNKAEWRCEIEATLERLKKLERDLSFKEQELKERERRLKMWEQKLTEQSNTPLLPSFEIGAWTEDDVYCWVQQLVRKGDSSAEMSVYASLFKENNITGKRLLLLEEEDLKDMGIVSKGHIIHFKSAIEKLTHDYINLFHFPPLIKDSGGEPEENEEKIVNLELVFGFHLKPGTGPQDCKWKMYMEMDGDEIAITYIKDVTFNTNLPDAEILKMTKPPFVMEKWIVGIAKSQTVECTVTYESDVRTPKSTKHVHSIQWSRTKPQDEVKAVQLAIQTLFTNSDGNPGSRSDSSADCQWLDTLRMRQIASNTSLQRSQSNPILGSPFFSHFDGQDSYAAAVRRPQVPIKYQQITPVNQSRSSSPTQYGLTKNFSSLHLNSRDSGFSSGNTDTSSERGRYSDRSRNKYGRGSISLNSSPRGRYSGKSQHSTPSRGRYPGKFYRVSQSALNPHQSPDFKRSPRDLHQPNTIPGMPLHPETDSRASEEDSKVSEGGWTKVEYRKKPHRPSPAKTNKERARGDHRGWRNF
Chain of Serine/threonine-protein kinase 25 (Homo sapiens) (O00506 whole entry, looked up): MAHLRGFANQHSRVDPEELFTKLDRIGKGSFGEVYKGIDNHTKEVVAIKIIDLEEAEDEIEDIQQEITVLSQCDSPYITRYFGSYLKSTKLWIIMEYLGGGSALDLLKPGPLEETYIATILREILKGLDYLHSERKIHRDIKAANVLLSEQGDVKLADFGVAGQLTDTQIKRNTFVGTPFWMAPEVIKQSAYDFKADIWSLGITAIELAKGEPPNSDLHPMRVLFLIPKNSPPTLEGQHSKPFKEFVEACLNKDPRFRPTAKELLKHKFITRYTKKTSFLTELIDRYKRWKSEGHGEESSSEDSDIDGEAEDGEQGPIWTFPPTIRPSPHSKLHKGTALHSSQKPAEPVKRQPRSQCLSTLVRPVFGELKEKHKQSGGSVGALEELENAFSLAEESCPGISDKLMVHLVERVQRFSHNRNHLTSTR
Chain of Myosin light chain kinase 2, skeletal/cardiac muscle (Homo sapiens) (Q9H1R3 whole entry): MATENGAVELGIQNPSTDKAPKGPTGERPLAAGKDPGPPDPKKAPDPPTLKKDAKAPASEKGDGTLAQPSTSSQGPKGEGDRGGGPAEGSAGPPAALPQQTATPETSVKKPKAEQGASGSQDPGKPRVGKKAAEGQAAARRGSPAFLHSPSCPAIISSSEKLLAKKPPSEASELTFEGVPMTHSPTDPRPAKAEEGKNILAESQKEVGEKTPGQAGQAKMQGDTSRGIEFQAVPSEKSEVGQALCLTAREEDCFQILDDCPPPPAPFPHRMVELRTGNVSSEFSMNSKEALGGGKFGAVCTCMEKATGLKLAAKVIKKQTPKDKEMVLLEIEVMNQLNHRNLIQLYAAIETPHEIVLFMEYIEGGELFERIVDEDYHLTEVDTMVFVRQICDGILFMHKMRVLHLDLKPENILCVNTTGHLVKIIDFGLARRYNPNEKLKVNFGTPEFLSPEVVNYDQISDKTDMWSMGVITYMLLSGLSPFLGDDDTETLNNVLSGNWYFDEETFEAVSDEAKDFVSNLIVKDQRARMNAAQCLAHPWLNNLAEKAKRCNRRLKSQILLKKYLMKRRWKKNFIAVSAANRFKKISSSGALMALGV

Work on `COc1cc2ncnc(N[C@H](C)c3cccc4ccccc34)c2cc1OC` yielded an Activity [1] of 90%, an Activity [2] of 100% and an Activity [3] of 100%. It also gave an Activity [4] of 90%, an Activity [5] of 83% and an Activity [6] of 51%. For the same molecule, the Activity [7] was 96%.
